According to patent publication US20250144220A1, “CONJUGATE FOR PREVENTING AND TREATING VIRAL INFECTIONS AND USE THEREOF” (priority 2021, published 2025):
Like-named read-outs stand apart in the source and are kept apart here.

Assays:
IFV B/Lee/40 = assay: microbe, parasite or virus in culture; format: cell-based; details: unidentified influenza virus, 120 h
[1] = test system: IFV A/California/2/2014 (H3N2); assay: microbe, parasite or virus in culture; format: cell-based; details: Influenza A virus, 120 h
in vitro = format: cell-based; details: dog
Protocol: • Toxicity of the tested compounds to MDCK cells was quantified by MDCK cell lines. […] The cell control without compound was also configured. The cells were incubated in an incubator for 4 days. • 4) 50 μL of Cell-titer Glo was added to each well, and the chemiluminescence was detected by a Microplate Reader. Inhibition rate=(average value of cell control−value of tested compounds)/average value of cell control […]

[2] = biological target: Influenza A H1N1 (A/California/04/2009) Neuraminidase/NA (Influenza A virus (A/California/04/2009(H1N1)), UniProt C3W5S3); assay: biochemical; details: neuraminidase 1 U/ml
H1N1(A/PR/8/34) virus = assay: microbe, parasite or virus in culture; format: cell-based; details: Influenza A virus, 96 h
B/YZ29/2019 (Victoria) = assay: microbe, parasite or virus in culture; format: cell-based; details: unidentified influenza virus, MDCK cells, 72 hours
[3] = test system: A/Chicken/Jiangsu/k0402/2010 (H5N1); assay: microbe, parasite or virus in culture; format: cell-based; details: Influenza A virus, H5N1, MDCK, 72 h
[4] = test system: B/Jiangsu/YZ08/2018 (Yamagata); assay: microbe, parasite or virus in culture; format: cell-based; details: unidentified influenza virus, MDCK cells, 72 hours
[5] = test system: A/Chicken/Eastern/JTC11/2013 (H7N9); assay: microbe, parasite or virus in culture; format: cell-based; details: Influenza A virus, H7N9, MDCK, 72 h
H1N1(A/PR/8/34) = assay: microbe, parasite or virus in culture; format: cell-based, influenza virus H1N1(A/PR/8/34); details: Influenza A virus, MDCK, 96 h
[6] = MDCK cells, H1N1(A/PR/8/34), 4 days, Cell-titer Glo
[7] = IFV B/Lee/40, MDCK cells, 5 days, read-out: EC50
[8] = IFV A/California/2/2014 (H3N2), MDCK cells, 5 days, read-out: EC50

Compound | CC50 at 4 days (in vitro) | IC50 [2] | EC50 (H1N1(A/PR/8/34) virus; [6]) | other results
O=C1c2c(O)c(=O)ccn2N([C@@H]2c3ccccc3SCc3c2ccc(F)c3F)[C@@H]2COCCN12 [Baloxavir, baloxivir] | – | – | – | EC50 (IFV B/Lee/40; MDCK): 1.47 nM; EC50 ([1]; H3N2, MDCK): 0.39 nM
C#CCOCCOCCOCCOCCOC(=O)N(CCOCCN(C)C(=O)O[C@@H]([C@@H]1OC(C(=O)O)=C[C@H](NC(=N)N)[C@H]1NC(C)=O)[C@H](O)CO)CCOCCN(C)C(=O)O[C@@H]([C@@H]1OC(C(=O)O)=C[C@H](NC(=N)N)[C@H]1NC(C)=O)[C@H](O)CO [C-Inter-1] | > 100000 nM | 10.4 nM | 0.28 nM | –
C#CCOCCOCCOCCOCCNC(=O)N(CCOCCN(C)C(=O)O[C@@H]([C@@H]1OC(C(=O)O)=C[C@H](NC(=N)N)[C@H]1NC(C)=O)[C@H](O)CO)CCOCCN(C)C(=O)O[C@@H]([C@@H]1OC(C(=O)O)=C[C@H](NC(=N)N)[C@H]1NC(C)=O)[C@H](O)CO [C-Inter-2] | > 100000 nM | 14.2 nM | 0.42 nM | –
C#CCOCCOCCOCCN1CCC(N(CCOCCN(C)C(=O)O[C@@H]([C@@H]2OC(C(=O)O)=C[C@H](NC(=N)N)[C@H]2NC(C)=O)[C@H](O)CO)CCOCCN(C)C(=O)O[C@@H]([C@@H]2OC(C(=O)O)=C[C@H](NC(=N)N)[C@H]2NC(C)=O)[C@H](O)CO)CC1 [C-Inter-3] | > 100000 nM | 21.3 nM | 0.39 nM | –
C#CCOCCOCCOCCN1CCN(C(=O)N(CCOCCN(C)C(=O)O[C@@H]([C@@H]2OC(C(=O)O)=C[C@H](NC(=N)N)[C@H]2NC(C)=O)[C@H](O)CO)CCOCCN(C)C(=O)O[C@@H]([C@@H]2OC(C(=O)O)=C[C@H](NC(=N)N)[C@H]2NC(C)=O)[C@H](O)CO)CC1 [C-Inter-4] | – | 48.7 nM | – | –
C#CCOCCOCCOCCOC1CCN(C(=O)N(CCOCCN(C)C(=O)O[C@@H]([C@@H]2OC(C(=O)O)=C[C@H](NC(=N)N)[C@H]2NC(C)=O)[C@H](O)CO)CCOCCN(C)C(=O)O[C@@H]([C@@H]2OC(C(=O)O)=C[C@H](NC(=N)N)[C@H]2NC(C)=O)[C@H](O)CO)CC1 [C-Inter-5] | > 100000 nM | 37 nM | 0.45 nM | –
C#CCOCCOCCOCCOCCN(C)C(=O)N(CCOCCN(C)C(=O)O[C@@H]([C@@H]1OC(C(=O)O)=C[C@H](NC(=N)N)[C@H]1NC(C)=O)[C@H](O)CO)CCOCCN(C)C(=O)O[C@@H]([C@@H]1OC(C(=O)O)=C[C@H](NC(=N)N)[C@H]1NC(C)=O)[C@H](O)CO [C-Inter-6] | > 100000 nM | 11.9 nM | 0.25 nM | –
C#CCOCCOCCOCCOCCNS(=O)(=O)N(CCOCCN(C)C(=O)O[C@@H]([C@@H]1OC(C(=O)O)=C[C@H](NC(=N)N)[C@H]1NC(C)=O)[C@H](O)CO)CCOCCN(C)C(=O)O[C@@H]([C@@H]1OC(C(=O)O)=C[C@H](NC(=N)N)[C@H]1NC(C)=O)[C@H](O)CO [C-Inter-7] | > 100000 nM | 7.64 nM | 0.57 nM | –
C#CCOCCOCCOCCNC(=N)N(CCOCCN(C)C(=O)O[C@@H]([C@@H]1OC(C(=O)O)=C[C@H](NC(=N)N)[C@H]1NC(C)=O)[C@H](O)CO)CCOCCN(C)C(=O)O[C@@H]([C@@H]1OC(C(=O)O)=C[C@H](NC(=N)N)[C@H]1NC(C)=O)[C@H](O)CO [C-Inter-10] | > 100000 nM | 10.8 nM | 0.39 nM | –
CCC(CC)O[C@@H]1C=C(C(=O)O)C[C@H](N)[C@H]1NC(C)=O [Oseltamivir acid] | – | – | – | EC50 (IFV B/Lee/40; [7]): 801 nM; EC50 (B/YZ29/2019 (Victoria)): 710 nM; EC50 [3]: 210 nM; EC50 [1, 8]: > 100000 nM; EC50 [4]: 780 nM; EC50 [5]: 540 nM
CC(=O)N[C@H]1[C@H]([C@H](O)[C@H](O)CO)OC(C(=O)O)=C[C@@H]1N=C(N)N [Zanamivir, zanamivir, reference compound] | – | – | – | EC50 (IFV B/Lee/40; [7]): 57.5 nM; CC50 (in vitro): > 100000 nM; EC50 (B/YZ29/2019 (Victoria)): 59 nM; EC50 [1, 8]: > 10000 nM; EC50 [4]: 90 nM; EC50 (H1N1(A/PR/8/34)): 45.7 nM; EC50 (H1N1(A/PR/8/34) virus; MDCK): 39.7 nM
